Three molecules from paper PMC12337130 (Nature microbiology, 2025) can be followed below.

The chains are these.
B1: GST-vBcl-2 (1–146) with N67D/V117A (domain or fragment)
chain: MDEDVLPGEVLAIEGIFMACGLNEPEYLYHPLLSPIKLYITGLMRDKESLFEAMLANVRFHSTTGIDQLGLSMLQVSGDGNMNWGRALAILTFGSFVAQKLSNEPHLRDFALAVLPAYAYEAIGPQWFRARGGWRGLKAYCTQVLT
B2: BID BH3 peptide (peptide)
peptide: EDIIRNIARHLAQVGDSMDR

One test deals with vBcl-2 (Human gammaherpesvirus 8, UniProt Q76RI8, N67D/V117A). Kind of test: surface plasmon resonance. The format is binding.
For the next test, the target named is vBcl-2–NM23-H2 complex (Human gammaherpesvirus 8, UniProt Q76RI8, N67D/V117A). Kind of test: HTRF protein-protein interaction assay. The class given is binding.
Another test has as its target His-NM23-H2 (human, UniProt P22392 1-152). Kind of test: AlphaScreen or HTRF.
Test [1] has as its target B1. Kind of test: AlphaScreen or HTRF.

In the case of `Cc1nc(Nc2nc3ccccc3o2)[nH]c(=O)c1C` [VBNI-1, 2-(Benzo[d]oxazol-2-ylamino)-5,6-dimethylpyrimidin-4(3H)-one], at vBcl-2, binding was characterised by a dissociation constant (Kd) of 875 nM. This molecule also displayed an IC50 on vBcl-2–NM23-H2 complex of approximately 64 nM. As to B1, the binding result in the test with His-NM23-H2 is given as “binds”. Take B2: the binding result in test [1] is “binds”.
